Laboratory results: patent publication US8344003B2, “2-pyridinecarboxamide derivatives” (MSD K. K., priority 2003, dated 2013)

Target: T1, recombinant human liver GK (Homo sapiens, UniProt P35557)
T1 construct: made in house; host or cells: E. coli
T1 sequence (P35557 1-466 isoform P35557-2): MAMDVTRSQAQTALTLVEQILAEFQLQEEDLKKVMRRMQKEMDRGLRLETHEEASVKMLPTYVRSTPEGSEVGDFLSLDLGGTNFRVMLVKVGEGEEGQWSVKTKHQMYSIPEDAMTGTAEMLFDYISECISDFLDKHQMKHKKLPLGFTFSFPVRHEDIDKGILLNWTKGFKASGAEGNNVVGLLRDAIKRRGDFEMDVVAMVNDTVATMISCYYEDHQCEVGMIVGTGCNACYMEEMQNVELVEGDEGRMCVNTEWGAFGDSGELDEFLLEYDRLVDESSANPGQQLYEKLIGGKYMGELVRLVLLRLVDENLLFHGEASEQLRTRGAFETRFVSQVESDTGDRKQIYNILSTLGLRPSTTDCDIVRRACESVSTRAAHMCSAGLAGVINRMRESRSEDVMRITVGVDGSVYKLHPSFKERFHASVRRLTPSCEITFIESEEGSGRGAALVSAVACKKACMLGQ
Experiment: glucokinase (GK) activation assay, Thio-NADH generation via reporter enzyme G6PDH, absorbance at 405 nm
Type: biochemical
Conditions: final glucose concentration 2.5 mM, 30° C.; for EC50: GK activation; for Emax: OD value of DMSO control regarded as 100%
Description: The glucokinase activity can be determined without directly measuring glucose-6-phosphate by measuring the amount of Thio-NADH generated during the production of phosphogluconolactone from glucose-6-phosphate by a reporter enzyme glucose-6-phosphate dehydrogenase. Thus, the degree of the glucokinase activity can be determined.
The recombinant human liver GK used in this assay expressed as a FLAG fusion protein in E. coli, was purified on […] M2 AFFINITY GEL (Sigma).
Assay was carried out at 30° C. in a 96-well plate. In the plate was distributed 69 μl each of assay buffer (25 mM Hepes Buffer: pH=7.2, 2 mM MgCl2, 1 mM ATP, 0.5 mM TNAD, 1 mM dithiothreitol), to which was added 1 μl of a DMSO solution of the compound or DMSO as control. Then, 20 μl of pre-ice-cooled enzyme mixture (FLAG-GK, 20 U/ml G6PDH) was distributed thereto, to which was added 10 μl of 25 mM glucose as substrate to initiate the reaction (final glucose concentration=2.5 mM).
FLAG-GK was added so that the increase of absorbance after 5 minutes fell between 0.05 to 0.1 in the presence of 1% DMSO.
The OD values of the respective compounds to be evaluated were measured in the respective concentrations, wherein the OD value of DMSO as control was regarded as 100%. From the OD values at the respective concentrations, Emax (%) and EC50 (μM) were calculated and used as indicators of the GK activation capability of the compounds. According to the above assay, the GK activation capability of the compounds in the present invention was determined.

EC50 [nM] | Emax [%] | SMILES
50 | 997 | COc1ccc(Sc2ccc(Sc3nnc[nH]3)nc2C(=O)Nc2nccs2)cc1 [Production Example 1]
120 | 818 | Cc1ccc(Sc2ccc(Sc3nnc[nH]3)nc2C(=O)Nc2nccs2)cn1 [Production Example 30, 3-(6-methyl-pyridine-3-yl-sulfanyl)-6-(4H-[1,2,4]triazole-3-yl-sulfanyl)-N-(thiazole-2-yl)-2-pyridine carboxamide]
